Results: ChEMBL document CHEMBL3885861, “Open TG-GATES”

Species: Rattus norvegicus
Assay: Open TG-GATES - Regimen: Single
Assay type: toxicity, organism-based, Sprague-Dawley
Design: regimen Single, gender Male, age 6 weeks
Settings: in vivo, po, route gavage; for gamma-GTP / ALP / ALT / AST / BUN / CRE / Ca / Cl / DBIL / GLC / IP / K / LDH / PL / RALB / TBIL / TC / TP / Na: tissue Plasma; for APTT / Bas / Eos / Fbg / Hb / Ht / Lym / MCH / MCHC / MCV / Mono / PT / Plat / RBC / Ret / WBC: tissue Blood; for KIDNEY_L / KIDNEY_R / KIDNEY_TOTAL: tissue Kidney; for LIVER: tissue Liver
[1] = 10 mg/kg, 24 h, dose level High

C#C[C@]1(O)CC[C@H]2[C@@H]3CCc4cc(O)ccc4[C@H]3CC[C@@]21C [ETHINYL ESTRADIOL]
gamma-GTP (3 mg/kg, 24 h, dose level Middle): 1 IU/L
TERMINAL_BW (10 mg/kg, 3 h, dose level High): 198.2 g
APTT (10 mg/kg, 3 h, dose level High): 15.3 s
Bas (10 mg/kg, 3 h, dose level High): 0%
Eos (10 mg/kg, 3 h, dose level High): 0.8%
Fbg (10 mg/kg, 3 h, dose level High): 270.4 mg/dL
Hb (10 mg/kg, 3 h, dose level High): 13 g/dL
Ht (10 mg/kg, 3 h, dose level High): 39.6%
Lym (10 mg/kg, 3 h, dose level High): 78.6%
MCH (10 mg/kg, 3 h, dose level High): 21.4 pg
MCHC (10 mg/kg, 3 h, dose level High): 32.9%
MCV (10 mg/kg, 3 h, dose level High): 65.2 fL
Mono (10 mg/kg, 3 h, dose level High): 3%
PT (10 mg/kg, 3 h, dose level High): 12.2 s
Plat (10 mg/kg, 3 h, dose level High): 115.1 x10_4/uL
RBC (10 mg/kg, 3 h, dose level High): 608.4 x10_4/ul
Ret (10 mg/kg, 3 h, dose level High): 9.5%
WBC (10 mg/kg, 3 h, dose level High): 93.6 x10_2/uL
KIDNEY_L (10 mg/kg, 3 h, dose level High): 0.9 g
KIDNEY_R (10 mg/kg, 3 h, dose level High): 0.9 g
KIDNEY_TOTAL (10 mg/kg, 3 h, dose level High): 1.8 g
LIVER (10 mg/kg, 3 h, dose level High): 8.6 g
ALP (10 mg/kg, 3 h, dose level High): 1437.2 IU/L
ALT (10 mg/kg, 3 h, dose level High): 44 IU/L
AST (10 mg/kg, 3 h, dose level High): 74 IU/L
BUN (10 mg/kg, 3 h, dose level High): 9.8 mg/dL
CRE (10 mg/kg, 3 h, dose level High): 0.2 mg/dL
Ca (10 mg/kg, 3 h, dose level High): 11.2 mg/dL
Cl (10 mg/kg, 3 h, dose level High): 105.8 meq/L
DBIL (10 mg/kg, 3 h, dose level High): 0.016 mg/dL
GLC (10 mg/kg, 3 h, dose level High): 182.8 mg/dL
IP (10 mg/kg, 3 h, dose level High): 9.7 mg/dL
K (10 mg/kg, 3 h, dose level High): 4 meq/L
LDH (10 mg/kg, 3 h, dose level High): 55 IU/L
PL (10 mg/kg, 3 h, dose level High): 139.8 mg/dL
RALB (10 mg/kg, 3 h, dose level High): 2.5 g/dL
TBIL (10 mg/kg, 3 h, dose level High): 0.044 mg/dL
TC (10 mg/kg, 3 h, dose level High): 73.4 mg/dL
TP (10 mg/kg, 3 h, dose level High): 5.3 g/dL
gamma-GTP (10 mg/kg, 3 h, dose level High): 1 IU/L
TERMINAL_BW (10 mg/kg, 6 h, dose level High): 197 g
APTT (10 mg/kg, 6 h, dose level High): 16.9 s
Bas (10 mg/kg, 6 h, dose level High): 0%
Eos (10 mg/kg, 6 h, dose level High): 1%
Fbg (10 mg/kg, 6 h, dose level High): 255.2 mg/dL
Hb (10 mg/kg, 6 h, dose level High): 12.8 g/dL
Lym (10 mg/kg, 6 h, dose level High): 72%
MCHC (10 mg/kg, 6 h, dose level High): 33.7%
MCV (10 mg/kg, 6 h, dose level High): 63 fL
PT (10 mg/kg, 6 h, dose level High): 12.5 s
Plat (10 mg/kg, 6 h, dose level High): 110.6 x10_4/uL
RBC (10 mg/kg, 6 h, dose level High): 605.4 x10_4/ul
Ret (10 mg/kg, 6 h, dose level High): 9.4%
WBC (10 mg/kg, 6 h, dose level High): 71.5 x10_2/uL
KIDNEY_L (10 mg/kg, 6 h, dose level High): 0.9 g
KIDNEY_R (10 mg/kg, 6 h, dose level High): 0.9 g
KIDNEY_TOTAL (10 mg/kg, 6 h, dose level High): 1.8 g
LIVER (10 mg/kg, 6 h, dose level High): 8 g
ALP (10 mg/kg, 6 h, dose level High): 1644.6 IU/L
ALT (10 mg/kg, 6 h, dose level High): 39.6 IU/L
AST (10 mg/kg, 6 h, dose level High): 78.6 IU/L
BUN (10 mg/kg, 6 h, dose level High): 7.6 mg/dL
CRE (10 mg/kg, 6 h, dose level High): 0.2 mg/dL
Ca (10 mg/kg, 6 h, dose level High): 10.7 mg/dL
Cl (10 mg/kg, 6 h, dose level High): 108.8 meq/L
DBIL (10 mg/kg, 6 h, dose level High): 0.018 mg/dL
IP (10 mg/kg, 6 h, dose level High): 10.5 mg/dL
LDH (10 mg/kg, 6 h, dose level High): 42.8 IU/L
Na (10 mg/kg, 6 h, dose level High): 145 meq/L
PL (10 mg/kg, 6 h, dose level High): 115.6 mg/dL
RALB (10 mg/kg, 6 h, dose level High): 2.6 g/dL
TBIL (10 mg/kg, 6 h, dose level High): 0.042 mg/dL
TC (10 mg/kg, 6 h, dose level High): 58.8 mg/dL
TP (10 mg/kg, 6 h, dose level High): 5.4 g/dL
gamma-GTP (10 mg/kg, 6 h, dose level High): 1 IU/L
TERMINAL_BW (10 mg/kg, 9 h, dose level High): 194.6 g
APTT (10 mg/kg, 9 h, dose level High): 15.5 s
Bas (10 mg/kg, 9 h, dose level High): 0.2%
Eos (10 mg/kg, 9 h, dose level High): 1%
Fbg (10 mg/kg, 9 h, dose level High): 262.8 mg/dL
Hb (10 mg/kg, 9 h, dose level High): 13.1 g/dL
Ht (10 mg/kg, 9 h, dose level High): 39%
Lym (10 mg/kg, 9 h, dose level High): 72%
MCH (10 mg/kg, 9 h, dose level High): 21.6 pg
MCHC (10 mg/kg, 9 h, dose level High): 33.6%
MCV (10 mg/kg, 9 h, dose level High): 64.5 fL
PT (10 mg/kg, 9 h, dose level High): 12.8 s
Plat (10 mg/kg, 9 h, dose level High): 104.1 x10_4/uL
RBC (10 mg/kg, 9 h, dose level High): 606 x10_4/ul
Ret (10 mg/kg, 9 h, dose level High): 8.6%
WBC (10 mg/kg, 9 h, dose level High): 82.4 x10_2/uL
KIDNEY_L (10 mg/kg, 9 h, dose level High): 0.9 g
KIDNEY_R (10 mg/kg, 9 h, dose level High): 0.8 g
KIDNEY_TOTAL (10 mg/kg, 9 h, dose level High): 1.7 g
LIVER (10 mg/kg, 9 h, dose level High): 7.2 g
ALP (10 mg/kg, 9 h, dose level High): 1741.8 IU/L
ALT (10 mg/kg, 9 h, dose level High): 40.8 IU/L
AST (10 mg/kg, 9 h, dose level High): 76.8 IU/L
BUN (10 mg/kg, 9 h, dose level High): 8 mg/dL
CRE (10 mg/kg, 9 h, dose level High): 0.2 mg/dL
Ca (10 mg/kg, 9 h, dose level High): 10.5 mg/dL
Cl (10 mg/kg, 9 h, dose level High): 109 meq/L
DBIL (10 mg/kg, 9 h, dose level High): 0.018 mg/dL
GLC (10 mg/kg, 9 h, dose level High): 188.2 mg/dL
IP (10 mg/kg, 9 h, dose level High): 10.1 mg/dL
K (10 mg/kg, 9 h, dose level High): 3.7 meq/L
LDH (10 mg/kg, 9 h, dose level High): 40.6 IU/L
Na (10 mg/kg, 9 h, dose level High): 146 meq/L
PL (10 mg/kg, 9 h, dose level High): 90.6 mg/dL
RALB (10 mg/kg, 9 h, dose level High): 2.4 g/dL
TBIL (10 mg/kg, 9 h, dose level High): 0.046 mg/dL
TC (10 mg/kg, 9 h, dose level High): 41.6 mg/dL
TP (10 mg/kg, 9 h, dose level High): 5.2 g/dL
TERMINAL_BW [1]: 197.9 g
Bas [1]: 0%
Eos [1]: 1%
Fbg [1]: 203.8 mg/dL
Hb [1]: 12.9 g/dL
Ht [1]: 38%
Lym [1]: 78.4%
MCH [1]: 22 pg
MCHC [1]: 34%
MCV [1]: 64.6 fL
Mono [1]: 4.4%
Plat [1]: 110.8 x10_4/uL
RBC [1]: 589.2 x10_4/ul
Ret [1]: 8.5%
WBC [1]: 92.3 x10_2/uL
KIDNEY_L [1]: 0.9 g
KIDNEY_R [1]: 0.9 g
KIDNEY_TOTAL [1]: 1.8 g
LIVER [1]: 9.4 g
ALP [1]: 1883.2 IU/L
ALT [1]: 42.8 IU/L
AST [1]: 71.6 IU/L
BUN [1]: 9 mg/dL
CRE [1]: 0.2 mg/dL
Ca [1]: 10.7 mg/dL
Cl [1]: 108.8 meq/L
DBIL [1]: 0.018 mg/dL
IP [1]: 7 mg/dL
K [1]: 4 meq/L
LDH [1]: 54.6 IU/L
PL [1]: 86.6 mg/dL
RALB [1]: 2.5 g/dL
TBIL [1]: 0.042 mg/dL
TC [1]: 32.4 mg/dL
TP [1]: 5.2 g/dL
gamma-GTP [1]: 1 IU/L
